Laboratory results: PubChem BioAssay AID623909 (Vanderbilt High Throughput Screening Facility, 2012)
pEC50: −log10 of the molar value. The source made the active and inactive calls. How the calls were made is not given here.

The molecules below were run against G protein-activated inward rectifier potassium channel 2 (Homo sapiens) + G protein-activated inward rectifier potassium channel 1 (Homo sapiens) (UniProt P48051+P48549) (assay: GIRK1/2 channel activators, dose response, cell-based, thallium flux, HEK-293 (AID 623909)). Conditions: HEK-293 hGIRK1/2, thallium flux FluoZin-2 fluorescence.
Sequence of G protein-activated inward rectifier potassium channel 2 (Homo sapiens) + G protein-activated inward rectifier potassium channel 1 (Homo sapiens) (P48051 whole entry, looked up): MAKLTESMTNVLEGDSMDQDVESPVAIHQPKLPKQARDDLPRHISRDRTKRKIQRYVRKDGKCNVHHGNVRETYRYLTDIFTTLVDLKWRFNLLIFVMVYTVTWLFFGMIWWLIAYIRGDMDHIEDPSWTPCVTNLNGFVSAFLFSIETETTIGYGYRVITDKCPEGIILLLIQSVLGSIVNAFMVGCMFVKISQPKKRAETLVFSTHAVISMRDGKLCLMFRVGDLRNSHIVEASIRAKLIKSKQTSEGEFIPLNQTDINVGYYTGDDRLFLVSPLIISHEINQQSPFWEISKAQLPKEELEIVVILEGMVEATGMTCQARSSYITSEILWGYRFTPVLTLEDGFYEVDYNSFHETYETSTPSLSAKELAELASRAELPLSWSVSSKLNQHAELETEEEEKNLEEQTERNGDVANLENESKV
Sequence of G protein-activated inward rectifier potassium channel 2 (Homo sapiens) + G protein-activated inward rectifier potassium channel 1 (Homo sapiens) (P48549 whole entry, looked up): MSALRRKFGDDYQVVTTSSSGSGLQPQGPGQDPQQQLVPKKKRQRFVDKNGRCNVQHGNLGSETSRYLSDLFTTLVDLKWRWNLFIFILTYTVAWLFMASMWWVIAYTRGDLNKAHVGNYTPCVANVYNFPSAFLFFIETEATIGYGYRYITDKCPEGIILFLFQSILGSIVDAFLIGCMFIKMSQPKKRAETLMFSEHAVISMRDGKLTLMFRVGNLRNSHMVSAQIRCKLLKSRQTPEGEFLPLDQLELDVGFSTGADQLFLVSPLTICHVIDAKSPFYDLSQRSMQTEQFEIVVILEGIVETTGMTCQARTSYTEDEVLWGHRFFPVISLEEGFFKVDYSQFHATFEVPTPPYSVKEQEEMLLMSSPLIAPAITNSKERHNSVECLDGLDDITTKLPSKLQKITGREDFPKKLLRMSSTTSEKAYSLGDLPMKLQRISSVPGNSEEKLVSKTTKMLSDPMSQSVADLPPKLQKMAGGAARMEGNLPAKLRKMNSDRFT

SMILES	pEC50
COc1ccc(C(=O)NC(=S)NC(C)C)cc1Br	5.65
CC1CCCN(Cc2cccc(Oc3ccccc3)c2)C1 (configuration not stated)	4.52
Cc1cc(NC(=O)Nc2ccccc2)n(-c2ccccc2)n1	5.43
CC(Sc1nnnn1C)C(=O)Nc1ccc(Oc2ccccc2)cc1 (configuration not stated)	4.52
CCOC(=O)Cc1csc(NC(=O)Nc2ccccc2)n1	5.13
Cc1cc(C)n(-c2ccc(C(=O)OCC(=O)Nc3ccc(Cl)c(S(=O)(=O)N(C)C)c3)cc2)n1	5.05
CCCCc1ccc(NC(=S)Nc2ccc(Cl)c(S(=O)(=O)N(C)C)c2)cc1	5.40
CCCN(CC1CC1)C(=S)Nc1ccc(Oc2ccccc2)cc1	5.45
Cc1ccc(-c2nnn(CC(=O)NC3CC4CCC3C4)n2)cc1 (configuration not stated)	6.50
CCSc1nnc(NC(=O)NC(CC)(C(F)(F)F)C(F)(F)F)s1	4.52
CSc1cccc(NC(=O)COc2ccccc2)c1	4.52
COc1ccc(NC(=O)Nc2ccccc2C(=O)N2CCCC2)cc1	4.52
CCCCc1ccc(NC(=S)Nc2cccnc2)cc1	5.05
Cc1ccccc1OCC(=O)N/N=C/c1cccn1C	4.52
COc1cccc(NC(=O)CC2COc3ccccc3O2)c1 (configuration not stated)	4.52
CC(=O)c1sc(NC(=O)c2cc(-c3ccccc3)nn2-c2ccccc2)nc1C	6.05
CCOC(=O)C1=C(CC)Nc2ccccc2N=C1NC(=O)Nc1ccc(Cl)c(Cl)c1	5.44
Cc1ccc(NC(=O)Cc2ccccc2Cl)cc1S(=O)(=O)N(C)C	5.58
CCCSc1nnc(Nc2ccccc2C)s1	4.52
CCOC(=O)c1ccc(NC(=O)Nc2ccc(OC)c(OC)c2)cc1	5.26
Cc1ccc(NC(=O)COC(=O)/C=C/c2ccco2)cc1S(=O)(=O)N(C)C	4.52
O=C(/C=C/c1ccccc1)NC(NC(=S)Nc1cccc(Cl)c1)C(Cl)(Cl)Cl (configuration not stated)	5.23

SMILES	pEC50
Cc1cccc(NC(=O)NC(C)CCc2ccccc2)c1 (configuration not stated)	4.52
CN(C)S(=O)(=O)N(CC(=O)Nc1ccc2ccccc2c1)c1ccccc1	5.14
Cc1ccc(Cl)cc1NC(=S)NCc1cccn1C	4.79
O=C(Cc1ccccc1)N/N=C/c1cccn1-c1ccc([N+](=O)[O-])cc1	5.85
COc1ccccc1Nc1ccc(Nc2ccccc2OC)nn1	5.47
CSc1ccccc1NC(=O)Nc1ccccc1	4.89
COc1ccc(NC(=O)Nc2cc(C)ccc2OC)cc1	5.69
CC(C)=CCC(C)(C)CNC(=O)NC1CCCCC1	4.52
CC(/C=N/NC(=O)c1c(Br)cnn1C)=C\c1ccccc1	5.45
CCOc1ccc(OCCSc2nc3ccccc3[nH]2)cc1	5.78
Cc1nn(CC(=O)Nc2ccc(Cl)c(S(=O)(=O)N(C)C)c2)c(C)c1[N+](=O)[O-]	4.52
S=C(Nc1cccc(Cl)c1)Nc1ccccc1Oc1ccccc1	5.09
CCOc1ccccc1Nc1nnc(Cc2ccccc2Cl)c(=O)[nH]1	6.17
C=C(C)C1CC=C(C)/C(=N/NC(=O)COc2cccc(C)c2)C1 (configuration not stated)	5.05
COc1ccc(C2CC(c3ccc(Cl)c(Cl)c3)Nc3nc(N)nn32)cc1 (configuration not stated)	5.62
O=C(Nc1ccc(Cl)cc1)NC1CCCCC1Cc1ccco1 (configuration not stated)	5.38
CCc1ccc(CNCCNCC(C)O)cc1 (configuration not stated)	5.63
COc1c(Cl)cc(Cl)cc1CNCCNCC(C)O (configuration not stated)	6.30
CCOc1ccc(NC(=O)NC23CC4CC(CC(C4)C2)C3)cc1	5.83
CN(C)S(=O)(=O)c1cccc(NC(=O)Cc2ccc(Cl)cc2)c1	5.01
Cc1ccc(CC(=O)N2CCN(c3cccc(C(F)(F)F)c3)CC2)cc1	5.29
C/C(CC(=O)NCC(C)C)=N\NC(=O)COc1cc(C)c(Br)cc1Br	4.77

SMILES	pEC50
O=C(Nc1ccc(Cl)cc1)Nc1nccs1	5.44
NC(=O)SCC(=O)Nc1ccc(Cl)cc1	5.38
COc1ccc(Nc2nnc(Cc3ccccc3)c(=O)[nH]2)c(OC)c1	4.52
CCOC(=O)C(Cc1ccccc1)NC(=O)Cn1nnc(-c2ccccc2)n1 (configuration not stated)	4.52
Fc1ccc(CSc2nc3ccccc3[nH]2)c2ccccc12	5.44
CCCn1c(C)cc(/C=C(\C#N)C(=O)OCC(=O)Nc2cccc(OC)c2)c1C	4.52
COc1cccc(NC(=O)Cn2cc(C#N)c3ccccc32)c1	5.78
COc1ccc(Br)cc1CNC(=O)Nc1cccs1	5.76
CSc1cccc(NC(=O)CN(c2ccccc2)S(=O)(=O)N(C)C)c1	4.52
O=C(Nc1cccc(Cl)c1)Nc1nccs1	5.71
CCOCc1c(C(=O)OCC(=O)Nc2ccc(C)c(S(=O)(=O)N(C)C)c2)oc2ccccc12	4.52
Cc1ccc(NC(=O)CN2c3cccc4cccc(c34)S2(=O)=O)cc1S(=O)(=O)N1CCOCC1	5.65
COC(=O)[C@H](Cc1ccccc1)NC(=O)NCCC1=CCCCC1	4.52
O=C(Nc1ccccc1)Nc1nccs1	4.52
COc1ccc(C)cc1NC(=O)NCCC1=CCCCC1	5.40
O=C(NNC(=O)c1cccs1)Nc1cccc(Cl)c1	4.95
CC1CC(C)CN(C(=S)Nc2ccc(SC(F)F)cc2)C1 (configuration not stated)	4.98
COc1cccc(NC(=O)Nc2cccs2)c1	5.14
COc1ccc(C)cc1NC(=O)Nc1ccccc1	5.22
O=C(Nc1ccc(F)c(F)c1)NC1CCCCC1	5.07
Cc1ccc(NC(=O)COC(=O)CCC(=O)c2ccc(Cl)cc2)cc1S(=O)(=O)N(C)C	4.52

Same assay, conditions: HEK-293 hGIRK1/2, thallium flux FluoZin-2 fluorescence; at 90 µM (top of the series)

SMILES	activation, % of glutamate
CSc1ccccc1NC(=O)Nc1ccc(Cl)cc1	inactive
CCOc1ccc(NC(=O)Nc2cccs2)cc1	inactive
